Source: ChEMBL document CHEMBL1914379, “Challenges of drug discovery in novel target space. The discovery and evaluation of PF-3893787: a novel histamine H4 receptor antagonist” (Bioorg Med Chem Lett, 2011)
Active and inactive are the calls of the source. No cut-off for these calls is given here.

Key:
HEK-293T [1] = test: Agonist activity at macaque H4R expressed in HEK293T cells assessed as reversal of forskolin-induced cAMP production by CRE-beta-lactamase reporter gene assay; format: functional, cell-based; details: Macaca mulatta
HEK-293T [2] = test: Agonist activity at dog H4R expressed in HEK293T cells assessed as reversal of forskolin-induced cAMP production by CRE-beta-lactamase reporter gene assay; format: functional, cell-based; details: Canis lupus familiaris
[3] = molecular target: T1, Histamine H4 receptor (Cavia porcellus) (UniProt Q91ZY3); test: Agonist activity at guinea pig H4R expressed in HEK293T cells assessed as reversal of forskolin-induced cAMP production by CRE-beta-lactamase reporter gene assay; format: functional, cell-based; details: HEK-293T
T1 sequence (whole entry): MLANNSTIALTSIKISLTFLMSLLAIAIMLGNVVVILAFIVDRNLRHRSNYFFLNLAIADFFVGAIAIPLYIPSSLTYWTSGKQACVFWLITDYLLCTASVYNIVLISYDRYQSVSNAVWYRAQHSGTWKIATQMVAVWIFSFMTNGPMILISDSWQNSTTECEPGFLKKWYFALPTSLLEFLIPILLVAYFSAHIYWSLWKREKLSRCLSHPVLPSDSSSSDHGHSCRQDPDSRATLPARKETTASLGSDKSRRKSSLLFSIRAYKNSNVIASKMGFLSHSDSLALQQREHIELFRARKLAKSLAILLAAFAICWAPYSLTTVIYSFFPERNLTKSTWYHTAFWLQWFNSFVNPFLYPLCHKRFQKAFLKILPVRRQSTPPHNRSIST

[4] = Metabolic stability in human liver microsomes; format: ADME, Microsome; details: read-out: Stability
[5] = Metabolic stability in rat liver microsomes; format: ADME, Microsome; details: read-out: Stability
[6] = Lipophilicity, log D of the compound; format: physicochemical; details: octanol/water
[7] = Displacement of [3H]-histamine from macaque H4R expressed in HEK293T cells; format: cell-based, Macaca mulatta; details: hek-293t
[8] = Displacement of [3H]-histamine from dog H4R expressed in HEK293T cells; format: cell-based, Canis lupus familiaris; details: hek-293t
Rattus norvegicus [9] = test: Toxicity in rat assessed as vacuolation at high dose, po for 7 days; format: organism-based; details: in vivo, 168 h
Rattus norvegicus [10] = test: Toxicity in rat assessed as bone marrow cytology changes at high dose, po for 7 days; format: organism-based; details: in vivo, 168 h
Histamine H4 receptor [11] = molecular target: T2, Histamine H4 receptor (Homo sapiens, UniProt Q9H3N8); test: Displacement of [3H]-histamine from full length human H4R expressed in HEK293 cells; format: cell-based
T2 sequence (Q9H3N8 whole entry): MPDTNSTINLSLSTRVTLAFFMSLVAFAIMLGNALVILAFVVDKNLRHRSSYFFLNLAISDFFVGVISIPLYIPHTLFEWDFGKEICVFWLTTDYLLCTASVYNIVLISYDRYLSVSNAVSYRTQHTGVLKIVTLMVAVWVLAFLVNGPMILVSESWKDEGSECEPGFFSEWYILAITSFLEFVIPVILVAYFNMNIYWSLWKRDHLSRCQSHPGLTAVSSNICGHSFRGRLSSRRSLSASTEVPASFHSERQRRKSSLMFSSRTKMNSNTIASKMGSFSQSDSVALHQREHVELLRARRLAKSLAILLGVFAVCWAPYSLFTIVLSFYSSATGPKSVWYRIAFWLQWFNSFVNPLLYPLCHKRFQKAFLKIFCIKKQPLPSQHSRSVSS

Histamine H4 receptor [12] = molecular target: T2, Histamine H4 receptor; test: Antagonist activity at full length human H4R expressed in HEK293 cells assessed as reversal of forskolin-induced cAMP production by CRE-beta-lactamase reporter gene assay; format: functional, cell-based
Liver microsomes = test: Metabolic stability in human liver microsomes assessed as reactive metabolite generation; format: ADME, Microsome
Histamine H4 receptor [13] = molecular target: T2, Histamine H4 receptor; test: Antagonist activity at full length human H4R expressed in HEK293 cells assessed as inhibition of forskolin-induced cAMP responsive element-beta-lactamase activity at 15 uM; format: functional, cell-based

Row | Structure (SMILES) | microsomal CLint [4] [µL/min/mg] | microsomal CLint [5] [µL/min/mg] | Ki (Histamine H4 receptor [11]) [nM] | Ki (Histamine H4 receptor [12]) [nM] | Stability (Liver microsomes) | also measured
1 | CN1CCN(C(=O)c2cc3cc(Cl)ccc3[nH]2)CC1 [JNJ-7777120] | 28 | 61 |  |  |  | Activity (HEK-293T [1]): Active; Activity (HEK-293T [2]): Active; Activity [3]: Active; logD [6]: 2.6; pKi [7]: 7.17; pKi [8]: 6.89
2 | CNC1CN(c2cc(NCc3cccc(F)c3)nc(N)n2)C1 |  | < 8.5 | 18 | 13 |  | Activity (Rattus norvegicus [9]): Toxic; Activity (Rattus norvegicus [10]): Toxic
3 | CN1C[C@@H]2CN(C(=O)c3nc4cc(F)ccc4[nH]3)C[C@@H]2C1 | < 7 | 40 | 83 | 39 | Stable | 
4 | CN1C[C@@H]2CN(C(=O)c3cc4cc(Cl)ccc4[nH]3)C[C@@H]2C1 | 7 | 36 |  | 27 | Unstable | 
5 | CC(C)(C)CCNc1cc(NC2CCN(Cc3ccc(CO)o3)C2)ncn1 (racemic) |  |  |  |  |  | inhibition (Histamine H4 receptor [13]): 73%
6 | CN1CCN(c2cc(NCCC(C)(C)C)ncn2)CC1 |  |  |  | 92 |  | 
